Values of other authors, collected in US11246819B2, “Compositions and methods for inhibiting biofilm deposition and production” (THE TRUSTEES OF THE UNIVERSITY OF PENNSYLVANIA, priority 2016, dated 2022).
Where no end group is shown, it is not given here.

B1: mutanase from Paenibacillus sp. strain RM1: bacterial mutanase, codon optimized for chloroplast expression (SEQ ID NO: 1) (protein)
chain: AGGPNLTPGKPITASGQSQTYSPQNVKDGNQNTYWESTNNAFPQWIQVDLGASTGIDQIVLKLPASWEARTQTLAVQGSLNGSTFTDIVGSANYVFSPSVGNNTVTINFTATSTRYVRLYVTANTGWPAAQLSEFEIYGSGDQTPAPDTYQAESAALSGGAKVNTDHAGYIGTGFVDGYWTQGATTTFSVNAPTAGNYDVTLRYGNATGSNKTVSLYVNGAKIRQTTLPSLPNWDSWSSKTETLNLNAGSNTIAYKYDPGDSGNVNLDQITVEASTSTPTPTPSPTPTPTPTPTPTPTPTPTPTPTPTPTPTPTPTPTPTPPPGGNIAIGKSISASSHTQTYVAENANDNDVNTYWEGGGNPSTLTLDLGANYNITSIVLKLNPSSIWAARTQTIQVLGHDQNTTTFSNLVSAKSYSFDPASGNTVTIPVTATVKRLQLNITSNSGAPAGQVAEFQVFGTPAPNPDLTITGMSWSPSSPVETDAITLNATVKNNGNASAAATTVNFYLNNELAGSAPVAALAAGASATVPLNVGAKTAATYAVGAKVDESNAVIELNESNNSYTNPASLVVAPVSSSDLVGTVSWTPSTPIANNAVSFNVNLKNQGTIASAGGSHGVTVVLKNASGSTVQTFSGSYTGSLAPGASVNITLPGTWTAAAGSYTVTATVAADANELPIKQANNANTASLTVYSARGASMPYSRYDTEDATLGGGATLKSAPTFDQALTASEATGQLYAALPSNGSYLQWTVRQGQGGAGVTMRFTMPDSADGMGLNGSLDVYVNGTKVKTVSLTSYYSWQYFSGDMPGDAPSAGRPLFRFDEVHWKLDTPLKPGDTIRIQKNNGDSLEYGVDFIEIEPVPAAISRPANSVSVTDYGAVPNDGQDDLTAFKAAVNAAVASDKILYIPEGTFHLGNMWEIGSVSNMIDHITITGAGIWYTNIQFTNANPASGGISLRITGKLDFSNVYLNSNLRSRYGQNAVYKGFMDNFGTNSVIRDVWVEHFECGFWVGDYGHTPAIRASGLLIENSRIRNNLADGVNFAQGTSNSTVRNSSLRNNGDDALAVWTSNTNGAPEGVNNTFSYNTIENNWRAGGIAFFGGSGHKADHNYIVDCVGGSGIRMNTVFPGYHFQNNTGIVFSDTTIVNCGTSKDLYNGERGAIDLEASNDAIRNVTFTNIDIINSQRDAIQFGYGGGFTNIVFNNININGTGLDGVTTSRFSGPHLGAAIFTYTGNGSATFNNLRTSNIAYPNLYYIQSGFNLIINNHHHHHH
modifications: codon optimized mutanase

Assays:
biofilm = details: 3 min incubation with biofilms, mutanase removed, then 6 hr incubation

Molecule | potency when linearized | entry into human mast cells and degranulation (human mast cells) | biofilm degradation (biofilm)
protegrin: cysteine-rich, 18-residue β-sheet antimicrobial peptide (RGGRLCYCRRRFCVCVGR; not fully specified (bridges); ends and bridges not checked; UniProt P32194 131-148, looked up) | lost potency | enter human mast cells and induce degranulation | –
retrocyclin | – | enter human mast cells and induce degranulation | –
B1 | – | – | effectively degraded
